Assay [1] relates to unanesthetized spontaneous hypertensive rat. In words: Antihypertensive activity, single oral medication in the spontaneous hypertensive rat (SH Rat). The settings on record: Rattus norvegicus; single oral dose required to induce a 40 mm average reduction in systolic blood pressure; read-out: Antihypertensive Activity SH Rat AHD40 mg./kg. P.O. The class given is in vivo. On the procedure: Antihypertensive activity was determined on the basis of the observed reduction in systolic blood pressure measured according to the method of H. Kersten et al., J. Lab. and Clin. Med. 32, 1090 (1947) following a single oral medication in the unanesthetized spontaneous hypertensive rat described by Okamato et al., Japan Circulation J. 27, 282 (1963).
^a AHD40 = single oral dose required to induce a 40 mm average
reduction in systolic blood pressure in the unanesthetized spontaneous
^f Actual reduction in blood pressure (in mm Hg) observed at the […]

In assay [2] the test system is heart rate increase elicited by isoproterenol in the pentobarbitalized dog. The assay can be described thus: β-adrenergic blocking activity in the pentobarbitalized dog. The settings on record: Canis lupus familiaris. The format is in vivo. On the procedure: The β-adrenergic blocking activity was determined in the pentobarbitalized dog as judged by the ability of the test compound to inhibit the elevation is heart rate elicited by a 0.5 mcg./kg. i.v. injection of isoproterenol.
^e AED50 = approximate intravenous dose required to cause 50%
inhibition of the heart rate increase elicited by isoproterenol in the
^h Actual percentage inhibition of heart rate increase above control
level observed at the indicated dose.

Assay [3] deals with isolated rabbit ear artery. The assay can be described thus: Vasodilator activity, isolated rabbit ear artery perfusion pressure. The following applies: Oryctolagus cuniculus; 1 × 10^-5 M; read-out: Rabbit Ear Artery vasodilation (percentage reduction in perfusion pressure). An excerpt:
(§1) Vasodilator activity was judged on the basis of observed reduction in perfusion pressure in the hind limb vasculature of the anesthetized dog determined according to the procedure described by Jandhyala et al., European J. Pharm. 17, 357 (1972), and also on the basis of percent reduction in perfusion pressure as measured in the isolated rabbit ear artery according to the method described by De LaLande et al., Aust. J. Exp. Biol. Med. Sci. 43, 639 (1965).
^d Vasodilation is expressed as the percentage reduction in perfusion
pressure from the control level at the indicated molar dose.

For assay [4], the system named is hind limb vasculature of the anesthetized dog. The assay can be described thus: Vasodilator activity, dog-leg perfusion. The format is in vivo. The settings on record: Canis lupus familiaris; approximate intraarterial dose causing 50% reduction in perfusion pressure in hind limb; read-out: Vasodilator Activity Dog-Leg Perfusion AED50.
Source text: as §1
^c AED50 =approximate intraarterial dose required to cause a 50%
reduction in perfusion pressure in the hind limb of the anesthetized dog.

Assay [5] concerns histamine-induced bronchoconstriction in the dog. In words: Block of histamine-induced bronchoconstriction in the dog (β-adrenergic stimulant activity). The format is in vivo.

Where a name gives a salt, the structure may show the parent alone.

For the compound `COc1ccc(CC(C)NCC(O)c2ccc(OC(C)=O)c(SC)c2)cc1` (stereo not drawn) [Example 2, 4-hydroxy-α-<{[2-(4-methoxyphenyl-1-methylethyl]amino}methyl>-3-(methylthio)benzenemethanol 4-aceetate hydrochloride], the ED (40 mm Hg) in assay [1] came out at 10 mg/kg. For the same compound, the inhibition at 1 mg/kg in assay [2] (1.0 mg./kg. intravenous, read-out: Actual percentage inhibition of heart rate increase above control level at the indicated dose) was 60%. Further, the ED50 was under 1 mg/kg in assay [2] (approximate intravenous dose causing 50% inhibition of isoproterenol-elicited heart rate increase, read-out: Adrenergic Activity Dog β-blockade AED50) and 0.5 mg/kg in assay [4]. The inhibition at 10 µM in assay [3] worked out at 50%. Besides, in assay [5], the β-adrenergic stimulant activity result is on record as “ability to block histamine-induced bronchoconstriction”.

Source of the values: patent publication US4695589A, “Alpha-(aminoalkyl-4-hydroxy-3-(alkylthio)benzenemethanols” (Sterling Drug Inc., priority 1983, dated 1987).
